Test results as given in patent publication US6403082B1, “Bacteriocins, transport and vector system and method of use thereof” (priority 1996, dated 2002).
Several values for one entry are separate records, joined by “and”; a condition that tells them apart may be missing. Equal values may be shown once. Marks after values point to notes of the source that are not given here. Ends that are not written are not given here.

Experiments:
Experiment in all cases: Spot test of partially purified bacteriocins on strains grown on agar
Staphylococcus = tested on: Staphylococcus
Clostridia spores = type: cell-based, Clostridium
Leuconostoc = tested on: Leuconostoc
Lactobacillus = tested on: Lactobacillus
Lactococcus = tested on: Lactococcus
Carnobacteria = tested on: Carnobacteria
Listeria = tested on: Listeria
Streptococcus = tested on: Streptococcus
G negative strains = type: cell-based
Brochothrix = tested on: Brochothrix
Bacillus spores = type: cell-based
Enterococcus = tested on: Enterococcus
[1] = tested on: Clostridia vegetative cells; type: cell-based, Clostridium
Pediococcus = tested on: Pediococcus
[2] = tested on: Bacillus vegetative cells; type: cell-based
[3] = 1AU (10 μl/spot of 100 AU/ml), listed as Mesent Y105
[4] = 8AU (10 μl/spot of 800 AU/ml), listed as Mesent Y105

## Mesen Y105: mesentericin Y105, an anti-Listeria bacteriocin from Leuconostoc mesenteroides (KYYGNGVHCTKSGCSVNWGEAASAGIHRLANGGNGFW; UniProt P38577 25-61, looked up)
Staphylococcus; 1AU (10 μl/spot of 100 AU/ml)
  Number of strains inhibited/Number of strains tested: 1/7^cf
Staphylococcus; [3]
  Number of strains inhibited/Number of strains tested: 1/7
Staphylococcus; 8AU (10 μl/spot of 800 AU/ml)
  Number of strains inhibited/Number of strains tested: 7/7^cf
Staphylococcus; [4]
  Number of strains inhibited/Number of strains tested: 7/7
Clostridia spores; 1AU (10 μl/spot of 100 AU/ml)
  Number of strains inhibited/Number of strains tested: 0/7
Clostridia spores; 8AU (10 μl/spot of 800 AU/ml)
  Number of strains inhibited/Number of strains tested: 0/7
Leuconostoc; 1AU (10 μl/spot of 100 AU/ml)
  Number of strains inhibited/Number of strains tested: 5/9
Leuconostoc; 8AU (10 μl/spot of 800 AU/ml)
  Number of strains inhibited/Number of strains tested: 6/9^o
Leuconostoc; [4]
  Number of strains inhibited/Number of strains tested: 6/9
Lactobacillus; 1AU (10 μl/spot of 100 AU/ml)
  Number of strains inhibited/Number of strains tested: 1/17^m
Lactobacillus; [3]
  Number of strains inhibited/Number of strains tested: 1/17
Lactobacillus; 8AU (10 μl/spot of 800 AU/ml)
  Number of strains inhibited/Number of strains tested: 1/17^m
Lactobacillus; [4]
  Number of strains inhibited/Number of strains tested: 2/17
Lactococcus; 1AU (10 μl/spot of 100 AU/ml)
  Number of strains inhibited/Number of strains tested: 0/8
Lactococcus; 8AU (10 μl/spot of 800 AU/ml)
  Number of strains inhibited/Number of strains tested: 1/8^n
Lactococcus; [4]
  Number of strains inhibited/Number of strains tested: 1/8
Carnobacteria; 1AU (10 μl/spot of 100 AU/ml)
  Number of strains inhibited/Number of strains tested: 17/19^j
Carnobacteria; [3]
  Number of strains inhibited/Number of strains tested: 17/19
Carnobacteria; 8AU (10 μl/spot of 800 AU/ml)
  Number of strains inhibited/Number of strains tested: 19/19
Listeria; 1AU (10 μl/spot of 100 AU/ml)
  Number of strains inhibited/Number of strains tested: 36/42^h
Listeria; [3]
  Number of strains inhibited/Number of strains tested: 36/42
Listeria; 8AU (10 μl/spot of 800 AU/ml)
  Number of strains inhibited/Number of strains tested: 42/42
Streptococcus; 1AU (10 μl/spot of 100 AU/ml)
  Number of strains inhibited/Number of strains tested: 0/3
Streptococcus; 8AU (10 μl/spot of 800 AU/ml)
  Number of strains inhibited/Number of strains tested: 3/3^g
Streptococcus; [4]
  Number of strains inhibited/Number of strains tested: 3/3
G negative strains; 1AU (10 μl/spot of 100 AU/ml)
  Number of strains inhibited/Number of strains tested: 0/29
G negative strains; 8AU (10 μl/spot of 800 AU/ml)
  Number of strains inhibited/Number of strains tested: 0/29
Brochothrix; 1AU (10 μl/spot of 100 AU/ml)
  Number of strains inhibited/Number of strains tested: 0/14
Brochothrix; 8AU (10 μl/spot of 800 AU/ml)
  Number of strains inhibited/Number of strains tested: 0/14
Bacillus spores; 1AU (10 μl/spot of 100 AU/ml)
  Number of strains inhibited/Number of strains tested: 5/5^b
Bacillus spores; [3]
  Number of strains inhibited/Number of strains tested: 5/5
Bacillus spores; 8AU (10 μl/spot of 800 AU/ml)
  Number of strains inhibited/Number of strains tested: 5/5^b
Bacillus spores; [4]
  Number of strains inhibited/Number of strains tested: 5/5
Enterococcus; 1AU (10 μl/spot of 100 AU/ml)
  Number of strains inhibited/Number of strains tested: 3/14^l
Enterococcus; [3]
  Number of strains inhibited/Number of strains tested: 3/14
Enterococcus; 8AU (10 μl/spot of 800 AU/ml)
  Number of strains inhibited/Number of strains tested: 9/14^l
Enterococcus; [4]
  Number of strains inhibited/Number of strains tested: 9/14
[1]; 1AU (10 μl/spot of 100 AU/ml)
  Number of strains inhibited/Number of strains tested: 0/8
[1]; 8AU (10 μl/spot of 800 AU/ml)
  Number of strains inhibited/Number of strains tested: 1/8^d
[1]; [4]
  Number of strains inhibited/Number of strains tested: 1/8
Pediococcus; 1AU (10 μl/spot of 100 AU/ml)
  Number of strains inhibited/Number of strains tested: 0/3
Pediococcus; 8AU (10 μl/spot of 800 AU/ml)
  Number of strains inhibited/Number of strains tested: 0/3
[2]; 1AU (10 μl/spot of 100 AU/ml)
  Number of strains inhibited/Number of strains tested: 3/5
[2]; 8AU (10 μl/spot of 800 AU/ml)
  Number of strains inhibited/Number of strains tested: 5/5

## Pedi PA-1: pediocin PA-1, a bacteriocin from Pediococcus acidilactici PAC1.0 (KYYGNGVTCGKHSCSVDWGKATTCIINNGAMAWATGGHQGNHKC; ends and bridges not checked; cysteine pairing not given here; UniProt P29430 19-62, looked up)
Staphylococcus; 1AU (10 μl/spot of 100 AU/ml)
  Number of strains inhibited/Number of strains tested: 0/7
Staphylococcus; 8AU (10 μl/spot of 800 AU/ml)
  Number of strains inhibited/Number of strains tested: 1/7
Clostridia spores; 1AU (10 μl/spot of 100 AU/ml)
  Number of strains inhibited/Number of strains tested: 0/7
Clostridia spores; 8AU (10 μl/spot of 800 AU/ml)
  Number of strains inhibited/Number of strains tested: 0/7
Leuconostoc; 1AU (10 μl/spot of 100 AU/ml)
  Number of strains inhibited/Number of strains tested: 4/9
Leuconostoc; 8AU (10 μl/spot of 800 AU/ml)
  Number of strains inhibited/Number of strains tested: 5/9
Lactobacillus; 1AU (10 μl/spot of 100 AU/ml)
  Number of strains inhibited/Number of strains tested: 1/17
Lactobacillus; 8AU (10 μl/spot of 800 AU/ml)
  Number of strains inhibited/Number of strains tested: 2/17
Lactococcus; 1AU (10 μl/spot of 100 AU/ml)
  Number of strains inhibited/Number of strains tested: 0/8
Lactococcus; 8AU (10 μl/spot of 800 AU/ml)
  Number of strains inhibited/Number of strains tested: 0/8
Carnobacteria; 1AU (10 μl/spot of 100 AU/ml)
  Number of strains inhibited/Number of strains tested: 7/19
Carnobacteria; 8AU (10 μl/spot of 800 AU/ml)
  Number of strains inhibited/Number of strains tested: 7/19
Listeria; 1AU (10 μl/spot of 100 AU/ml)
  Number of strains inhibited/Number of strains tested: 39/42
Listeria; 8AU (10 μl/spot of 800 AU/ml)
  Number of strains inhibited/Number of strains tested: 40/42
Streptococcus; 1AU (10 μl/spot of 100 AU/ml)
  Number of strains inhibited/Number of strains tested: 0/3
Streptococcus; 8AU (10 μl/spot of 800 AU/ml)
  Number of strains inhibited/Number of strains tested: 0/3
G negative strains; 1AU (10 μl/spot of 100 AU/ml)
  Number of strains inhibited/Number of strains tested: 0/29
G negative strains; 8AU (10 μl/spot of 800 AU/ml)
  Number of strains inhibited/Number of strains tested: 0/29
Brochothrix; 1AU (10 μl/spot of 100 AU/ml)
  Number of strains inhibited/Number of strains tested: 0/14
Brochothrix; 8AU (10 μl/spot of 800 AU/ml)
  Number of strains inhibited/Number of strains tested: 0/14
Bacillus spores; 1AU (10 μl/spot of 100 AU/ml)
  Number of strains inhibited/Number of strains tested: 0/5
Bacillus spores; 8AU (10 μl/spot of 800 AU/ml)
  Number of strains inhibited/Number of strains tested: 0/5
Enterococcus; 1AU (10 μl/spot of 100 AU/ml)
  Number of strains inhibited/Number of strains tested: 7/14
Enterococcus; 8AU (10 μl/spot of 800 AU/ml)
  Number of strains inhibited/Number of strains tested: 11/14
[1]; 1AU (10 μl/spot of 100 AU/ml)
  Number of strains inhibited/Number of strains tested: 0/8
[1]; 8AU (10 μl/spot of 800 AU/ml)
  Number of strains inhibited/Number of strains tested: 0/8
Pediococcus; 1AU (10 μl/spot of 100 AU/ml)
  Number of strains inhibited/Number of strains tested: 0/3
Pediococcus; 8AU (10 μl/spot of 800 AU/ml)
  Number of strains inhibited/Number of strains tested: 2/3
[2]; 1AU (10 μl/spot of 100 AU/ml)
  Number of strains inhibited/Number of strains tested: 2/5
[2]; 8AU (10 μl/spot of 800 AU/ml)
  Number of strains inhibited/Number of strains tested: 2/5

## Nisin
Staphylococcus; 1AU (10 μl/spot of 100 AU/ml)
  Number of strains inhibited/Number of strains tested: 3/7
Staphylococcus; 8AU (10 μl/spot of 800 AU/ml)
  Number of strains inhibited/Number of strains tested: 7/7
Clostridia spores; 1AU (10 μl/spot of 100 AU/ml)
  Number of strains inhibited/Number of strains tested: 5/7
Clostridia spores; 8AU (10 μl/spot of 800 AU/ml)
  Number of strains inhibited/Number of strains tested: 7/7
Leuconostoc; 1AU (10 μl/spot of 100 AU/ml)
  Number of strains inhibited/Number of strains tested: 9/9
Leuconostoc; 8AU (10 μl/spot of 800 AU/ml)
  Number of strains inhibited/Number of strains tested: 9/9
Lactobacillus; 1AU (10 μl/spot of 100 AU/ml)
  Number of strains inhibited/Number of strains tested: 16/17
Lactobacillus; 8AU (10 μl/spot of 800 AU/ml)
  Number of strains inhibited/Number of strains tested: 17/17
Lactococcus; 1AU (10 μl/spot of 100 AU/ml)
  Number of strains inhibited/Number of strains tested: 4/8
Lactococcus; 8AU (10 μl/spot of 800 AU/ml)
  Number of strains inhibited/Number of strains tested: 6/8^t and 6/8
Carnobacteria; 1AU (10 μl/spot of 100 AU/ml)
  Number of strains inhibited/Number of strains tested: 19/19
Carnobacteria; 8AU (10 μl/spot of 800 AU/ml)
  Number of strains inhibited/Number of strains tested: 19/19
Listeria; 1AU (10 μl/spot of 100 AU/ml)
  Number of strains inhibited/Number of strains tested: 42/42
Listeria; 8AU (10 μl/spot of 800 AU/ml)
  Number of strains inhibited/Number of strains tested: 42/42
Streptococcus; 1AU (10 μl/spot of 100 AU/ml)
  Number of strains inhibited/Number of strains tested: 1/3
Streptococcus; 8AU (10 μl/spot of 800 AU/ml)
  Number of strains inhibited/Number of strains tested: 2/3
G negative strains; 1AU (10 μl/spot of 100 AU/ml)
  Number of strains inhibited/Number of strains tested: 0/29
G negative strains; 8AU (10 μl/spot of 800 AU/ml)
  Number of strains inhibited/Number of strains tested: 0/29
Brochothrix; 1AU (10 μl/spot of 100 AU/ml)
  Number of strains inhibited/Number of strains tested: 14/14
Brochothrix; 8AU (10 μl/spot of 800 AU/ml)
  Number of strains inhibited/Number of strains tested: 14/14
Bacillus spores; 1AU (10 μl/spot of 100 AU/ml)
  Number of strains inhibited/Number of strains tested: 5/5
Bacillus spores; 8AU (10 μl/spot of 800 AU/ml)
  Number of strains inhibited/Number of strains tested: 5/5
Enterococcus; 1AU (10 μl/spot of 100 AU/ml)
  Number of strains inhibited/Number of strains tested: 12/14
Enterococcus; 8AU (10 μl/spot of 800 AU/ml)
  Number of strains inhibited/Number of strains tested: 14/14
[1]; 1AU (10 μl/spot of 100 AU/ml)
  Number of strains inhibited/Number of strains tested: 7/8
[1]; 8AU (10 μl/spot of 800 AU/ml)
  Number of strains inhibited/Number of strains tested: 8/8
Pediococcus; 1AU (10 μl/spot of 100 AU/ml)
  Number of strains inhibited/Number of strains tested: 3/3
Pediococcus; 8AU (10 μl/spot of 800 AU/ml)
  Number of strains inhibited/Number of strains tested: 3/3
[2]; 1AU (10 μl/spot of 100 AU/ml)
  Number of strains inhibited/Number of strains tested: 5/5
[2]; 8AU (10 μl/spot of 800 AU/ml)
  Number of strains inhibited/Number of strains tested: 5/5
